ChEMBL document CHEMBL1201862, “PubChem BioAssay data set” (2004)
The source made the active and inactive calls.

How the values were obtained:
[1] = biological target: T1, E3 ubiquitin-protein ligase XIAP (Homo sapiens, UniProt P98170); assay: Counter Screen using XIAP-Bir3 for Chemical Antagonists of Bir1/2 domains of IAP-family anti-apoptotic proteins. [Related pubchem assays (depositor defined):AID1018, AID1449, AID1514, AID1638, AID1749, AID1750, AID488957, AID488963]
Large T antigen = Large T antigen (Simian virus 40, UniProt P03070); format: functional, Betapolyomavirus macacae;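 also: Confirmatory-stage PubChem screen for compounds that inhibit SV40 T antigen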
Chain of Large T antigen (P03070 whole entry): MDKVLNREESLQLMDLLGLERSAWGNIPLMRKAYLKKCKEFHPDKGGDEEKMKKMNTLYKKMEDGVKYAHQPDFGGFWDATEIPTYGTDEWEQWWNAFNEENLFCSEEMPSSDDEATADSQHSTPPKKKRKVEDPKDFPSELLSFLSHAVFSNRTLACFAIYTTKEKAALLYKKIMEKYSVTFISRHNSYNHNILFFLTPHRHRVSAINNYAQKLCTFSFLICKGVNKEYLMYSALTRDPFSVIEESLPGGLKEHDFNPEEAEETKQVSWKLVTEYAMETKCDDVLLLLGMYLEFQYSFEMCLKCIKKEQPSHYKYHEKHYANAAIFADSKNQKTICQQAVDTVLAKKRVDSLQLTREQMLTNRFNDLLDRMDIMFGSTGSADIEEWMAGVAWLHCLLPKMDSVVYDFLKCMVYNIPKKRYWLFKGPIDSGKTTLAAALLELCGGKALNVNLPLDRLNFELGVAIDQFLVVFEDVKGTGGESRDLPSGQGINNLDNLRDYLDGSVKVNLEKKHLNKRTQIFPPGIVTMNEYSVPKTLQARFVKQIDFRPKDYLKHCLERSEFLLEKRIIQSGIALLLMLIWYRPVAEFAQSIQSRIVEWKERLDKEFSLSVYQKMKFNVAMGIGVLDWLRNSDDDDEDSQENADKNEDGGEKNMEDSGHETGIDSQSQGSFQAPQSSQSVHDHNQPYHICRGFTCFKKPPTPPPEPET

[2] = Luminescent dose response cell-based high throughput screening assay for inhibitors of the Janus kinase 2 mutant JAK2V617F. [Related pubchem assays: 1446 (Primary screen.), 1521 (Confirmation assay.), 1486 (Counter screen.)]; format: functional
[3] = biological target: T1, E3 ubiquitin-protein ligase XIAP; assay: small molecules displacing peptide from XIAP – biochemical, IAP family, fluorescence polarization (AID 1018); format: functional
H9c2 = assay: cells; format: functional, cell-based; conditions: Rattus norvegicus, H9c2, Myocardium;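 also: confirmatory concentration-response retest of ultra-high-throughput screening hits for modulation of myocardial damage; cell death induced by hydrogen peroxide oxidative stress; compound pretreatment for 60 min then peroxide exposure for 2 h; potency is for protecting the cells against peroxide damage rather than for killing them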
[4] = cytotoxicity toward Colo320 cells – cell-based, CellTiter-Glo luminescence, IC50, dose response (AID 1117334); format: functional; conditions: COLO 320
[5] = SNU-C1 cell viability reduction, dose response, CellTiter-Glo luminescence (AID 1117323); format: functional, cell-based
[6] = cytotoxicity toward HCT116 cells – cell-based, CellTiter-Glo luminescence, IC50, dose response (AID 1117332); format: functional; conditions: HCT-116
[7] = Reduced DLD-1 viability, concentration-response, CellTiter-Glo luminescence (AID 1117352); format: functional
[8] = cytotoxicity toward HT-29 cells – cell-based, CellTiter-Glo luminescence, IC50, dose response (AID 1117330); format: functional
[9] = HCT116 cell viability decrease, GSK3B pretreatment – CellTiter-Glo, IC50, dose response (AID 1117339); format: functional; conditions: HCT-116
[10] = RKO cell viability reduction, dose response, CellTiter-Glo luminescence (AID 1117322); format: functional
[11] = CellTiter-Glo luminescence survival assay, SW480 colon tumor line, concentration-response curve, half-maximal inhibitory concentration (AID 1117338); format: functional
[12] = biological target: Melanin-concentrating hormone receptor 1 (Homo sapiens, UniProt Q99705); assay: Fluorescence-based counterscreen for antagonists of the G-protein coupled receptor 7 (GPR7): cell-based high throughput dose response assay to identify antagonists of the melanin-concentrating hormone receptor 1 (MCHR1).; format: functional
Chain of Melanin-concentrating hormone receptor 1 (Q99705 whole entry): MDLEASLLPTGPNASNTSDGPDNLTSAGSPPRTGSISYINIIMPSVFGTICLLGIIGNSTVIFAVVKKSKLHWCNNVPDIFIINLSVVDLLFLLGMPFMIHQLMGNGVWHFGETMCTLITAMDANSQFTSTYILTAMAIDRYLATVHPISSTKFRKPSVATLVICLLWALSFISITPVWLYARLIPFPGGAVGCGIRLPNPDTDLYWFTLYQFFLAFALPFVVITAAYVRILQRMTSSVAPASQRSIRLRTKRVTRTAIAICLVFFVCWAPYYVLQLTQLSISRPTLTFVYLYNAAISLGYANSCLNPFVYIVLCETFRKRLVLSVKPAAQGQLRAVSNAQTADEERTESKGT

[13] = biological target: Neuropeptides B/W receptor type 1 (Homo sapiens, UniProt P48145); assay: Fluorescence-based dose response cell-based high throughput screening assay to identify antagonists of the G-protein coupled receptor 7 (GPR7). [Related pubchem assays: 1952 (Screening assay (GPR7 antagonists).), 1880 (Summary AID.)]; format: functional
Chain of Neuropeptides B/W receptor type 1 (P48145 whole entry): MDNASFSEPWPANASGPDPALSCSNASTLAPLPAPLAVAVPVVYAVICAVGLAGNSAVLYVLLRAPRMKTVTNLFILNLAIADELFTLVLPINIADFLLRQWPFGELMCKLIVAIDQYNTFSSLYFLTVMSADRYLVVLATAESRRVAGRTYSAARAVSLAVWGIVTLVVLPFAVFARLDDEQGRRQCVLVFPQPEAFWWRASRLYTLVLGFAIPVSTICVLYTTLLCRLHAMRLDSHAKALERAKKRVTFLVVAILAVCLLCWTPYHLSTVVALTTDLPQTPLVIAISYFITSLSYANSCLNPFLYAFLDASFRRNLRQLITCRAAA

[14] = biological target: T2, Heat shock factor protein 1 (Mus musculus, UniProt P38532); assay: decrease of HSF1-responsive luciferase luminescence – cell-based, NIH3T3, dose retest, confirmation (AID 2382); format: functional;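 also: NIH3T3 fibroblasts with HSF1-driven luciferase reporter stressed by proteasome inhibitor MG132; luminescence from HSF1-driven luciferase expression after 8 hours of MG132 stress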
T2 sequence (P38532 whole entry): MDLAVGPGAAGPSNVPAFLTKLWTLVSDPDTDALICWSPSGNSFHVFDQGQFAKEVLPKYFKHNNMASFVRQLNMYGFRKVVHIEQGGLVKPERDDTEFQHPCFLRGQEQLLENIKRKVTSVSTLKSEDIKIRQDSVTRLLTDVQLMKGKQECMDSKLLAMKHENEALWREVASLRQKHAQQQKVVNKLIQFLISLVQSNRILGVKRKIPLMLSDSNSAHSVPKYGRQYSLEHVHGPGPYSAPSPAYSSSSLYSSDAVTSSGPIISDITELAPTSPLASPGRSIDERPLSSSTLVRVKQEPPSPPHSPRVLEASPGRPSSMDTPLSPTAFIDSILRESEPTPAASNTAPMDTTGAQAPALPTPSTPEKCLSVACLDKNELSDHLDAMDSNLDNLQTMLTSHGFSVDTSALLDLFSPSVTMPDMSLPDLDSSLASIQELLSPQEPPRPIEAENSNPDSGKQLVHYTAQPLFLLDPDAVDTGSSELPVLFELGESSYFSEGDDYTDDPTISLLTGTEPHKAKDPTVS

[15] = biological target: T3, Tyrosine-protein phosphatase non-receptor type 7 (Homo sapiens, UniProt P35236); assay: HePTP tyrosine phosphatase activity blockers – biochemical, absorbance, leukemia target, primary screen (AID 521); format: functional
T3 sequence (P35236 whole entry): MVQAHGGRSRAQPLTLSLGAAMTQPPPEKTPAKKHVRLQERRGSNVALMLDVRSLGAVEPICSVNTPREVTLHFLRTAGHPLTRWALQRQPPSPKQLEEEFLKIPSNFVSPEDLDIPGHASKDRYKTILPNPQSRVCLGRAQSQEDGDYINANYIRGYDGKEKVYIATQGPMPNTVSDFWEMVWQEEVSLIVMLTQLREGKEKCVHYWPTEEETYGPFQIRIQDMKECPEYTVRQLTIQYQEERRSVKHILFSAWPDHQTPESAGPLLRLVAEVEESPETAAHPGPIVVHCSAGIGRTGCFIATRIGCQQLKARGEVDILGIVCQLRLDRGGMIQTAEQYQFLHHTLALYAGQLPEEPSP

[16] = Trypanosoma cruzi growth suppression in host cells – NIH3T3 host cells, beta-gal luminescence, confirmation (AID 2044); format: functional, cell-based;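 also: intracellular parasites grown in NIH/3T3 mouse fibroblasts as host cells; luminescent beta-galactosidase reporter signal from transgenic T. cruzi replicating inside host cells; inhibitors lower the luminescence signal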
[17] = NIH3T3 cell viability loss – ATP luminescence, mouse fibroblasts, counter-screen, dose response (AID 2010); format: functional, cell-based;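 also: cells exposed to compound for about 90 hours before reading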
[18] = M. tuberculosis growth inhibition, HTS (AID 449762); format: functional
Ephrin type-A receptor 4 = Ephrin type-A receptor 4 (Mus musculus, UniProt Q03137); assay: EphA4 ligand-binding antagonists – biochemical, colorimetric, mouse EphA4, primary screen (AID 689); format: functional
Chain of Ephrin type-A receptor 4 (Q03137 whole entry): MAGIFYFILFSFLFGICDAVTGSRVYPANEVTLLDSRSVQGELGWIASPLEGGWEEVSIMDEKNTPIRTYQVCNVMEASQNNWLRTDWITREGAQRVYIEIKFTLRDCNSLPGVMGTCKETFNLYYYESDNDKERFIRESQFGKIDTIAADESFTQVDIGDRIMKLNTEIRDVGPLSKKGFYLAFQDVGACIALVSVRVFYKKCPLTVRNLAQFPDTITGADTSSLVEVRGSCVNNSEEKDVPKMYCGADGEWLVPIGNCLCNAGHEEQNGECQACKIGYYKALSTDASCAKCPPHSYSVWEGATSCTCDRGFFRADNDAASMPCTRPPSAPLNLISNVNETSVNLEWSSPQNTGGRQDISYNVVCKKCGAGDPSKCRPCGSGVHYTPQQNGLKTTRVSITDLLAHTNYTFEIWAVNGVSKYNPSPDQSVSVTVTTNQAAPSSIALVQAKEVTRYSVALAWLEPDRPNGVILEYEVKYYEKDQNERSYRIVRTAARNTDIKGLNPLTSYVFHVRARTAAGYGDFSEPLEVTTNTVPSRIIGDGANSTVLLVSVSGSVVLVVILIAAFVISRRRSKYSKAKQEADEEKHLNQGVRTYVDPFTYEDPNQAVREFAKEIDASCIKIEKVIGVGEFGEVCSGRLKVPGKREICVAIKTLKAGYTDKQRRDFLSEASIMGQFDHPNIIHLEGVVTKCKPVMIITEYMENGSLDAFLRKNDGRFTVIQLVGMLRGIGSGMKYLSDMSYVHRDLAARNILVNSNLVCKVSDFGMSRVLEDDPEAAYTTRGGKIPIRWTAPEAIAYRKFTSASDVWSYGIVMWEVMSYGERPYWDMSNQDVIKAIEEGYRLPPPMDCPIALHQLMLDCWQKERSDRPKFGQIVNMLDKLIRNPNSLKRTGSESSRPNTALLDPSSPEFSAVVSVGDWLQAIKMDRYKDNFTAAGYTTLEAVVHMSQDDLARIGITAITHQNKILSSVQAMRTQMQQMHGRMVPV

[19] = biological target: 5-hydroxytryptamine receptor 1A (Homo sapiens, UniProt P08908); format: functional
Chain of 5-hydroxytryptamine receptor 1A (P08908 whole entry): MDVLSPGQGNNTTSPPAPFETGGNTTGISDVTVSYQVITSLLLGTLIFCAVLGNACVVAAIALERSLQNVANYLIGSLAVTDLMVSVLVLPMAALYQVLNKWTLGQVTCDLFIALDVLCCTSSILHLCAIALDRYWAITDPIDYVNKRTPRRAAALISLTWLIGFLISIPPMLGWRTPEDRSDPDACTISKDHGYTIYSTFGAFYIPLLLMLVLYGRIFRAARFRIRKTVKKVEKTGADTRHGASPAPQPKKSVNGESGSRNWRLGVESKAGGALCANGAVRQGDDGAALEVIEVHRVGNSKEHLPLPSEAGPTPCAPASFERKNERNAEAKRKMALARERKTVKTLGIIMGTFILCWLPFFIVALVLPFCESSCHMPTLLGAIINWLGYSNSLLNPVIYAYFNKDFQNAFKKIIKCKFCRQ

T1 sequence (P98170 whole entry): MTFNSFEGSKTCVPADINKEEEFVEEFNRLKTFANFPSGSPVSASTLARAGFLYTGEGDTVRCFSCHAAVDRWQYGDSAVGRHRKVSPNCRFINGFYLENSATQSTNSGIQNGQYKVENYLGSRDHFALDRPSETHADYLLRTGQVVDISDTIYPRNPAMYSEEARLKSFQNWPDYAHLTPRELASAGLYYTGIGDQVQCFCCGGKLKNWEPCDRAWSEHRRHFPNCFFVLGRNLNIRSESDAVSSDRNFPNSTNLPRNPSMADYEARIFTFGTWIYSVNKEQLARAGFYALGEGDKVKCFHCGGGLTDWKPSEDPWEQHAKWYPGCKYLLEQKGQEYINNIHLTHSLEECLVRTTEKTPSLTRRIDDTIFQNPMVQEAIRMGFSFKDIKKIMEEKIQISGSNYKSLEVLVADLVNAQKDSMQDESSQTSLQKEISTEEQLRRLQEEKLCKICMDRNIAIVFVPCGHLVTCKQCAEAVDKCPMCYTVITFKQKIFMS

COC(=O)/C=C/c1ccc(OC(=O)OC)c(OC(=O)OC)c1
IC50 [1]: > 100 µM (inactive) | IC50 (Large T antigen): 12.1 µM (active) | IC50 [2]: 2.64 µM (active) | IC50 [3]: > 100 µM (not active) | IC50 (H9c2): > 79 µM (inactive)

Cc1nnc(NS(=O)(=O)c2ccc(N)cc2)s1 [SULFAMETHIZOLE]
IC50 [4]: > 20 µM (inactive) | IC50 [5]: > 20 µM (inactive) | IC50 [6]: > 20 µM (inactive) | IC50 [7]: > 20 µM (inactive) | IC50 [8]: > 20 µM (inactive) | IC50 [9]: > 20 µM (inactive) | IC50 [10]: > 20 µM (inactive) | IC50 [11]: > 20 µM (inactive)

CCCC(CCC)C(=O)Nc1ccc2c(c1)N(C(=O)CCN1CCN(C)CC1)c1ccccc1CC2
IC50 [12]: 15.7 µM (not active) | IC50 [13]: 7.8 µM (active) | EC50 [14]: > 195 µM (not active)

O=C(Nc1ccc2c(c1)OCO2)NC1CCN(Cc2ccccc2)CC1
IC50 [15]: > 100 µM (not active) | EC50 [16]: 1 µM (active) | EC50 [17]: > 60 µM (not active)

CCCSC1=C(C#N)C(c2ccc(Cl)cc2Cl)CC(=O)N1 (configuration not stated)
IC50 [18]: > 25 µM (active)

CCCCOP(=O)(OCCCC)/C(C#N)=C(/C)O
IC50 (Ephrin type-A receptor 4): > 100 µM (not active)

CN(C)CCCn1c(NC(=O)C2CCCCC2)nc2ccccc21
EC50 [19]: > 50 µM (not active)
